Measurements from US20090246292A1, “ANTIMICROBIAL FORMULATIONS COMPRISING A QUINONE AND A COPPER SALT” (priority 2006, published 2009).
Values joined by “and” are separate entries in the source; they are usually repeats but may differ in a detail not shown here. Equal values may be shown once.

Experiments:
P. acnes PRP-068 = assay: Disc diffusion assay (DDA), also supplemented; format: cell-based, Propionibacterium acnes; settings: 200 μg per disc
Experimental: (§4) The propionibacteria were cultured and maintained on Wilkins-Chalgren Anaerobe Medium (agar and broth) at pH 6.0; all cultures were incubated anaerobically at 37° C. for 72 hours.
(§5) A sterile paper disc was impregnated with a sample of the test compound in a suitable solvent and 30 minutes allowed for the solvents to evaporate (where possible). The disc was then placed on an agar plate onto which the test micro-organism had been inoculated. The plate was then incubated under the conditions described above, following which it was examined visually for signs of bacterial growth. […] The diameter of this zone of “inhibition” was measured using a ProtoCOL™ automated zone sizer (Synbiosis, Cambridge, UK).
(§6) For assays using Propionibacterium spp. strains the supplements used in the examples below were lipid (either Tween™ 80 or triolein, both at 1% v/v) and sodium chloride (100 mM).

P. acnes PRP-004 = assay: Disc diffusion assay (DDA), also supplemented; format: cell-based, Propionibacterium acnes; settings: 200 μg per disc
Experimental: as §4, §5, §6

P. acnes PRP-023 [1] = assay: Disc diffusion assay (DDA), also supplemented; format: cell-based, Propionibacterium acnes; settings: 200 μg per disc
Experimental: as §4, §5, §6

P. acnes PRP-101 [2] = assay: Disc diffusion assay (DDA), also supplemented; format: cell-based, Propionibacterium acnes; settings: 200 μg per disc
Experimental: as §4, §5, §6

P. acnes PRP-039 = assay: Disc diffusion assay (DDA), also supplemented; format: cell-based, Propionibacterium acnes; settings: 200 μg per disc
P. acnes PRP-026 = assay: Disc diffusion assay (DDA), also supplemented; format: cell-based, Propionibacterium acnes; settings: 200 μg per disc
Experimental: as §4, §5, §6

P. granulosum PRP-019 = assay: Disc diffusion assay (DDA), also supplemented; format: cell-based; settings: 200 μg per disc
Experimental: as §4, §5, §6

S. aureus ATCC 29213 [3] = assay: Minimum inhibitory concentration (MIC) assay; format: cell-based, Staphylococcus aureus
Description: (a) Minimum Inhibitory Concentration (MIC) Assay
The culture media were as described above.
The assays included both negative (culture medium with no micro-organisms) and positive (culture medium plus diluting solvent plus micro-organism) controls.

P. granulosum PRP-006 = P. granulosum PRP-006 (resistance MLS); agar dilution
Experimental: (§1) This is a standard international method for quantitatively assessing the antimicrobial activity of a compound in a solid medium. […] A set amount of these antimicrobial stock solutions was then added to molten agar medium (ca. 55° C.), mixed thoroughly, poured into sterile Petri dishes and allowed to cool/set. The culture medium was as described above.
(§2) A Multipoint™ Inoculator (AQS Manufacturing Ltd, UK) was used to inoculate the plates by spotting the inocula onto the surface of the agar, delivering approximately 1 to 2 μl per spot (yielding 10^5 CFU (colony forming units) per spot).
(§3) The plate(s) were then incubated under the conditions described above, following which they were examined visually for signs of bacterial growth. The MIC value was ascertained when there was a marked reduction in, or total loss of, growth on the test plate at the lowest concentration as compared to that of the growth on the control plate.

P. granulosum PRP-055 = P. granulosum PRP-055 (resistance None); agar dilution
Experimental: as §1, §2, §3

P. acnes PRP-017 [4] = settings: P. acnes PRP-017 (resistance MLS); agar dilution
Experimental: as §1, §2, §3

P. acnes PRP-046 = P. acnes PRP-046 (resistance None); agar dilution
Experimental: as §1, §2, §3

P. acnes PRP-101 [5] = settings: P. acnes PRP-101 (resistance Tet/MLS); agar dilution
Experimental: as §1, §2, §3

P. acnes PRP-007 [6] = settings: P. acnes PRP-007 (resistance Clin); agar dilution
Experimental: as §1, §2, §3

P. acnes PRP-102 = P. acnes PRP-102 (resistance Tet/MLS); agar dilution
Experimental: as §1, §2, §3

P. granulosum PRP-044 [7] = settings: P. granulosum PRP-044 (resistance MLS); agar dilution
Experimental: as §1, §2, §3

P. granulosum PRP-005 = P. granulosum PRP-005 (resistance MLSK); agar dilution
Experimental: as §1, §2, §3

P. granulosum NCTC 11865 = P. granulosum NCTC 11865 (resistance None); agar dilution
Experimental: as §1, §2, §3

P. acnes PRP-010 = P. acnes PRP-010 (resistance MLSK); agar dilution
Experimental: as §1, §2, §3

P. acnes PRP-023 [8] = settings: P. acnes PRP-023 (resistance MLSK); agar dilution
Experimental: as §1, §2, §3

P. acnes PRP-053 = assay: Disc diffusion assay (DDA), also supplemented; format: cell-based, Propionibacterium acnes; settings: 200 μg per disc
Experimental: as §4, §5, §6

P. acnes PRP-007 [9] = assay: Disc diffusion assay (DDA), also supplemented; format: cell-based, Propionibacterium acnes; settings: 200 μg per disc
Experimental: as §4, §5, §6

P. granulosum PRP-044 [10] = assay: Disc diffusion assay (DDA), also supplemented; format: cell-based; settings: 200 μg per disc
Experimental: as §4, §5, §6

P. acnes NCTC 737 = assay: Disc diffusion assay (DDA), also supplemented;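 note: paper disc carrying compound placed on inoculated Wilkins-Chalgren Anaerobe agar pH 6.0, with lipid or NaCl supplement where listed, anaerobic 37 °C for 72 h, inhibition zone diameter read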
Experimental: as §4
(d) Disc Diffusion Assay (DDA)
as §5
(f) Supplemented Disc Diffusion Assays
as §6

P. acnes PRP-017 [11] = assay: Disc diffusion assay (DDA), also supplemented; format: cell-based, Propionibacterium acnes; settings: 200 μg per disc
S. aureus ATCC 29213 [12] = assay: Minimum bactericidal concentration (MBC) assay; format: cell-based, Staphylococcus aureus
Experimental: (b) Minimum Bactericidal Concentration (MBC) Assay
Following incubation they were examined visually for bacterial growth.

For O.O.O.O.O.O=S(=O)([O-])[O-].[Cu+2] [Copper (II) sulphate pentahydrate], the “DDA + salt” value (P. acnes PRP-068) was 54.73 mm, the “DDA + lipid” value (P. acnes PRP-068; 1% (v/v) triolein) was 49.56 mm and the DDA (P. acnes PRP-068; single replicate) was 52.90 mm. For the same compound, the DDA (P. acnes PRP-068; Table 12 series) was 51.12 mm, the “DDA + salt” value (P. acnes PRP-004) was 52.60 mm and the “DDA + lipid” value (P. acnes PRP-004; 1% (v/v) triolein) was 45.61 mm. The DDA (P. acnes PRP-004; single replicate) was 51.08 mm, the DDA (P. acnes PRP-004; Table 12 series) was 44.85 mm and the “DDA + salt” value (P. acnes PRP-023 [1]) was 51.38 mm. For the same compound, the “DDA + lipid” value (P. acnes PRP-023 [1]; 1% (v/v) triolein) was 47.43 mm, the DDA (P. acnes PRP-023 [1]; single replicate) was 47.13 mm and the DDA (P. acnes PRP-023 [1]; Table 12 series) was 60.95 mm. The “DDA + salt” value (P. acnes PRP-101 [2]) was 53.21 mm, the “DDA + lipid” value (P. acnes PRP-101 [2]; 1% (v/v) triolein) was 55.03 mm and the DDA (P. acnes PRP-101 [2]; single replicate) was 45.30 mm. For the same compound, the DDA (P. acnes PRP-101 [2]; Table 12 series) was 43.49 mm, the “DDA + salt” value (P. acnes PRP-039) was 61.72 mm and the “DDA + lipid” value (P. acnes PRP-039; 1% (v/v) triolein) was 59.29 mm. The DDA (P. acnes PRP-039; single replicate) was 53.51 mm, the DDA (P. acnes PRP-039; Table 12 series) was 56.35 mm and the “DDA + salt” value (P. acnes PRP-026) was 52.90 mm. For the same compound, the “DDA + lipid” value (P. acnes PRP-026; 1% (v/v) triolein) was 53.21 mm, the DDA (P. acnes PRP-026; single replicate) was 51.08 mm and the DDA (P. acnes PRP-026; Table 12 series) was 56.14 mm. The “DDA + salt” value (P. granulosum PRP-019) was 25.84 mm, the “DDA + lipid” value (P. granulosum PRP-019; 1% (v/v) triolein) was 24.02 mm and the DDA (P. granulosum PRP-019; single replicate) was 22.80 mm. For the same compound, the DDA (P. granulosum PRP-019; Table 12 series) was 24.15 mm, the MIC (S. aureus ATCC 29213 [3]) was over 250 µg/mL and the MIC (P. granulosum PRP-006) was 62.5 µg/mL. For the same compound, the MIC (P. granulosum PRP-055) was 62.5 µg/mL, the MIC (P. acnes PRP-017 [4]) was 7.8 µg/mL and the MIC (P. acnes PRP-046) was 7.8 µg/mL. For the same compound, the MIC (P. acnes PRP-101 [5]) was 7.8 µg/mL, the MIC (P. acnes PRP-007 [6]) was 7.8 µg/mL and the MIC (P. acnes PRP-102) was 7.8 µg/mL. It also gave an MIC (P. granulosum PRP-044 [7]) of 62.5 µg/mL, an MIC (P. granulosum PRP-005) of 62.5 µg/mL and an MIC (P. granulosum NCTC 11865) of 7.8 µg/mL. For the same compound, the MIC (P. acnes PRP-010) was 7.8 µg/mL, the MIC (P. acnes PRP-023 [8]) was 7.8 µg/mL and the “DDA + salt” value (P. acnes PRP-053) was 54.42 mm. For the same compound, the “DDA + lipid” value (P. acnes PRP-053; 1% (v/v) triolein) was 51.08 mm, the DDA (P. acnes PRP-053; single replicate) was 43.78 mm and the DDA (P. acnes PRP-053; Table 12 series) was 50.18 mm. The “DDA + salt” value (P. acnes PRP-007 [9]) was 55.03 mm, the “DDA + lipid” value (P. acnes PRP-007 [9]; 1% (v/v) triolein) was 48.95 mm and the DDA (P. acnes PRP-007 [9]; single replicate) was 56.55 mm. The DDA (P. acnes PRP-007 [9]; Table 12 series) was 40.35 mm, the “DDA + salt” value (P. granulosum PRP-044 [10]) was 31.92 mm and the “DDA + lipid” value (P. granulosum PRP-044 [10]; 1% (v/v) triolein) was 26.45 mm. The DDA (P. granulosum PRP-044 [10]; single replicate) was 27.36 mm, the DDA (P. granulosum PRP-044 [10]; Table 12 series) was 27.81 mm and the DDA (P. acnes NCTC 737) was 49.75 mm and 42.05 (±1.16) mm. The “DDA + lipid” value (P. acnes NCTC 737) was 44.03 mm, the “DDA + salt” value (P. acnes NCTC 737) was 50.28 mm and the “DDA + salt & lipid” value (P. acnes NCTC 737) was 49.96 mm and 49.54 (±1.34) mm. The “DDA + salt” value (P. acnes PRP-017 [11]) was 56.85 mm, the “DDA + lipid” value (P. acnes PRP-017 [11]; 1% (v/v) triolein) was 55.03 mm and the DDA (P. acnes PRP-017 [11]; single replicate) was 51.38 mm. It also gave a DDA (P. acnes PRP-017 [11]; Table 12 series) of 46.31 mm and an MBC (S. aureus ATCC 29213 [12]) of over 250 µg/mL.
